According to paper PMC12584665, “In vitro and in vivo efficacy of vancomycin against Elizabethkingia species and the impact of increased vancomycin MICs” (Microbiology Spectrum, 2025):
Values after ≈ are worked out from the molar mass of the structure shown. Read-outs that look alike come from different tables or passages of the source.

How the values were obtained:
[1] = tested on: Elizabethkingia anophelis; assay: Galleria mellonella (wax moth) infection survival model; format: in vivo
Description: (§1) In vivo efficacy was assessed by wax moth (Galleria mellonella), murine pneumonia, and murine thigh infection models following the protocols of our previous study ([2]). The Animal Ethics Committee of Taiwan’s National Health Research Institutes approved the murine pneumonia and thigh infection models.
G. mellonella was reared at the National Health Research Institutes of Taiwan. Caterpillars in the final instar larval stage (weight ca. 250 mg) were used. […] A 10 µL aliquot of E. anophelis at the predetermined lethal dose was injected into the hemocoel of each caterpillar via the last left proleg. Antibiotics were administered once into another proleg at the indicated time points; vancomycin (5, 10, or 20 mg/kg, 2 h post-inoculation); other glycopeptides (teicoplanin, 10 mg/kg, 30 min post-inoculation; dalbavancin, 8.75 mg/kg, 2 h post-inoculation; oritavancin, 15 mg/kg, 1 h post-inoculation) ([11][–][13]); or daptomycin (10 mg/kg, 2 h post-inoculation) ([13]). Each treatment group contained 6–8 caterpillars. A control group injected with sterile PBS was included to monitor for trauma-related mortality. Caterpillars were incubated at 37°C, and survival was recorded twice daily for 72 h.

[2] = tested on: Elizabethkingia anophelis; assay: Broth microdilution (BMD) MIC; format: cell-based; conditions: for MIC: Elizabethkingia anophelis; for susceptibility category: all susceptibility tests, CLSI criteria for Enterococcus spp. (susceptible MIC <= 4 mg/L, zone >= 17 mm)
Description: Eighteen E. anophelis clinical isolates from the nationwide surveillance program (Taiwan Surveillance of Antimicrobial Resistance) were well characterized in our previous study ([7]) and were selected for susceptibility testing and minimum bactericidal concentration (MBC) assays. Among them, five isolates with different clonality (underlined strains in Fig. S1) were selected for the time-kill assays and in vivo experiments.
Broth microdilution, disc diffusion, Etest, and agar dilution assays were conducted following CLSI guidelines to determine vancomycin MICs ([8]). […] Criteria for Staphylococcus spp. were not adopted due to the lack of a zone diameter breakpoint. MBCs were determined following CLSI guidelines ([8]).

E. anophelis = assay: Broth microdilution MIC of laboratory-induced and gene-edited mutants; format: cell-based, Elizabethkingia anophelis; conditions: for MIC: Elizabethkingia anophelis
Description: (§2) E. anophelis and non-anophelis species with baseline vancomycin MICs of 16–32 mg/L (Table 2) were well characterized in our previous study ([7]) and were included in the induction study. The induction of mutants with elevated vancomycin MICs was modified from a previous study ([18]). Briefly, 10^9 cfu of wild-type E. anophelis (2008S01-229) was plated on brain heart infusion agar (Becton Dickinson, Franklin Lakes, NJ, USA) with twofold multiples of vancomycin (32 –256 mg/L). Isolates from viable colonies were subjected to broth microdilution. Genomic comparison between the parental strain (2008S01-229) and elevated-MIC mutants was performed to identify the mutated gene conferring increased vancomycin MIC. To determine whether similar genetic changes occurred in other Elizabethkingia species, non-anophelis isolates were subjected to the same induction protocol. The corresponding target genes were then analyzed by Sanger sequencing to assess the presence of analogous mutations. The target gene related to elevated vancomycin MICs was also validated via scarless gene editing.
The suicide plasmid pUT-ermF, which contains two key selection markers: the ermF gene for erythromycin resistance and the sacB gene for sucrose sensitivity-based counterselection, was used as previously described ([19]). DNA fragments corresponding to the upstream and downstream flanking regions of the target gene were cloned into pUT-ermF. The recombinant plasmids were first introduced into E. coli S17–λpir and subsequently transferred into Elizabethkingia spp. via conjugation. The first recombination events were selected on LB agar containing 250 µg/mL erythromycin, and the second recombination (plasmid resolution) was selected by plating on LB agar with 10% sucrose (without NaCl). Colonies were screened and confirmed by PCR sequencing. Genome sequencing was carried out to confirm no other inadvertent changes.

[3] = tested on: Acinetobacter baumannii (LAC-4); assay: Murine pneumonia model (model validation); format: in vivo, C57BL/6J mice; conditions: 8 mice per group
Description: (§3) For the pneumonia model, a bacterial suspension was mixed with 5% mucin from porcine stomach (type 3; Sigma-Aldrich, Saint Louis, USA). Seven-week-old C57BL/6J mice were anesthetized with isoflurane for 10 min. For each strain, the inoculum corresponded to the lowest dose that caused >80% mortality in preliminary testing. This inoculum (10⁶–10⁸ cfu, depending on strain) was delivered intratracheally to induce pneumonia. Two hours thereafter, mice received either high or human-equivalent doses of subcutaneous vancomycin (100 mg/kg or 25 mg/kg, respectively) or intraperitoneal teicoplanin (50 mg/kg) ([17]) twice daily for 3 days. Each group contained eight mice, and survival was monitored for 3 days.

[4] = tested on: Elizabethkingia anophelis; assay: Murine pneumonia model; format: in vivo, C57BL/6J mice; conditions: for survival of infected mice: 8 mice per group
Description: as §1, §3

E. miricola = assay: Broth microdilution MIC of laboratory-induced mutants; format: cell-based
Description: as §2

E. bruuniana = assay: as above; format: cell-based
Description: as §2

E. ursingii = assay: as above; format: cell-based
Description: as §2

E. meningoseptica = assay: as above; format: cell-based; conditions: Elizabethkingia meningoseptica
Description: as §2

CN[C@H](CC(C)C)C(=O)N[C@H]1C(=O)N[C@@H](CC(N)=O)C(=O)N[C@H]2C(=O)N[C@H]3C(=O)N[C@H](C(=O)N[C@H](C(=O)O)c4cc(O)cc(O)c4-c4cc3ccc4O)[C@H](O)c3ccc(c(Cl)c3)Oc3cc2cc(c3O[C@@H]2O[C@H](CO)[C@@H](O)[C@H](O)[C@H]2O[C@H]2C[C@](C)(N)[C@H](O)[C@H](C)O2)Oc2ccc(cc2Cl)[C@H]1O [Vancomycin]
survival of infected wax moths ([1]; 10 mg/kg once, 2 h post-inoculation, five E. anophelis isolates, 72 h, 37°C, 6-8 caterpillars per group): improved the survival
improvement of larval survival ([1]; 10 mg/kg, infection by 2008S01-229-VAN-R compared to 2008S01-229): hampered
dose dependence of survival of infected wax moths ([1]; 5, 10 and 20 mg/kg once, 2 h post-inoculation, two clinical isolates): dose-dependent effect
MICs, range over isolates ([2]; 18 E. anophelis isolates, broth microdilution, concordant with agar dilution and Etest): 16 to 32 mg/L
MIC ([2]; read-out: MIC, BMD, E. anophelis clinical isolate 2008N05-106): 32 µg/mL (≈ 22.1 µM)
MIC ([2]; read-out: MIC, BMD, E. anophelis clinical isolate 2008S01-229): 32 µg/mL (≈ 22.1 µM)
MIC ([2]; read-out: MIC, BMD, E. anophelis clinical isolate 2014C06-157): 32 µg/mL (≈ 22.1 µM)
MIC ([2]; read-out: MIC, BMD, E. anophelis clinical isolate 2016N17-576): 32 µg/mL (≈ 22.1 µM)
MIC ([2]; read-out: MIC, BMD, E. anophelis clinical isolate 2018C04-213): 16 µg/mL (≈ 11 µM)
MIC ([2]; read-out: MIC, BMD, E. anophelis clinical isolate 2018C04-224): 16 µg/mL (≈ 11 µM)
MIC ([2]; read-out: MIC, BMD, E. anophelis clinical isolate 2018C07-210): 16 µg/mL (≈ 11 µM)
MIC ([2]; read-out: MIC, BMD, E. anophelis clinical isolate 2018C07-234): 16 µg/mL (≈ 11 µM)
MIC ([2]; read-out: MIC, BMD, E. anophelis clinical isolate 2018C08-127): 16 µg/mL (≈ 11 µM)
MIC ([2]; read-out: MIC, BMD, E. anophelis clinical isolate 2018E03-151): 16 µg/mL (≈ 11 µM)
MIC ([2]; read-out: MIC, BMD, E. anophelis clinical isolate 2018E04-135): 16 µg/mL (≈ 11 µM)
MIC ([2]; read-out: MIC, BMD, E. anophelis clinical isolate 2018N16-057): 16 µg/mL (≈ 11 µM)
MIC ([2]; read-out: MIC, BMD, E. anophelis clinical isolate 2018N17-036): 32 µg/mL (≈ 22.1 µM)
MIC ([2]; read-out: MIC, BMD, E. anophelis clinical isolate 2018N17-073): 16 µg/mL (≈ 11 µM)
MIC ([2]; read-out: MIC, BMD, E. anophelis clinical isolate 2018N17-153): 16 µg/mL (≈ 11 µM)
MIC ([2]; read-out: MIC, BMD, E. anophelis clinical isolate 2018N21-226): 16 µg/mL (≈ 11 µM)
MIC ([2]; read-out: MIC, BMD, E. anophelis clinical isolate 2018S09-023): 16 µg/mL (≈ 11 µM)
MIC ([2]; read-out: MIC, BMD, E. anophelis clinical isolate 2018S11-172): 32 µg/mL (≈ 22.1 µM)
MIC ([2]; read-out: MICs as summarised in the discussion, E. anophelis, isolates not specified): 32 µg/mL (≈ 22.1 µM)
susceptibility category [2]: non-susceptible
susceptibility category ([2]; listed as vancomycin): resistant
MIC (E. anophelis; induced E. anophelis mutant, pbp4 692InsC, Frameshift, 1 isolate): 512 µg/mL
MIC (E. anophelis; induced E. anophelis mutant, pbp4 736Del8bp, Frameshift, 1 isolate): 512 µg/mL
MIC (E. anophelis; induced E. anophelis mutant, pbp4 827DelA, Frameshift, 1 isolate): 128 µg/mL
MIC (E. anophelis; scarless deletion of pbp4 in wild-type E. anophelis 2008N05-106, read-out: MIC): > 512 µg/mL
MIC (E. anophelis; wild-type E. anophelis parent strain (2008S01-229), read-out: Parent strain MIC): 32 µg/mL
effect on MIC (E. anophelis; replacement of exbD with Thr28Pro mutation in 2008N05-106): did not affect the vancomycin MIC
survival of A. baumannii-infected mice ([3]; 100 mg/kg subcutaneous twice daily): did not improve the survival
activity in A. baumannii pneumonia model ([3]; 25 or 100 mg/kg subcutaneous twice daily, A. baumannii LAC-4): Lack of vancomycin (VAN) activity
survival of infected mice ([4]; 25 mg/kg subcutaneous twice daily for 3 days, from 2 h after intratracheal inoculation, all clinical strains except 2014C06-157): significantly improved the survival or delayed death
in vivo efficacy against one isolate ([4]; 25 mg/kg, one isolate with similar MIC (2014C06-157)): ineffective
survival of infected mice ([4]; 100 mg/kg subcutaneous twice daily for 3 days): conferred a survival benefit
improvement of murine survival ([4]; 100 mg/kg twice daily, infection by 2008S01-229-VAN-R compared to 2008S01-229): hampered
MIC (E. miricola): 512 µg/mL
MIC (E. miricola; wild-type E. miricola parent strain, read-out: Parent strain MIC): 32 µg/mL
MIC (E. bruuniana): 256 µg/mL
MIC (E. bruuniana; wild-type E. bruuniana parent strain, read-out: Parent strain MIC): 16 µg/mL
MIC (E. ursingii): 256 µg/mL
MIC (E. ursingii; wild-type E. ursingii parent strain, read-out: Parent strain MIC): 32 µg/mL
MIC (E. ursingii; {}): 256 µg/mL
MIC (E. meningoseptica; induced E. meningoseptica mutants, pbp4 827DelA, Frameshift, 2 isolates, one value each): 64 µg/mL
MIC (E. meningoseptica; wild-type E. meningoseptica parent strain, read-out: Parent strain MIC): 16 µg/mL
